Measurements taken from article PMC6161288, “Bioavailability of Eurycomanone in Its Pure Form and in a Standardised Eurycoma longifolia Water Extract” (Pharmaceutics, 2018).
≈ marks a conversion by molar mass, not a printed value. Where two headings read alike, the source gives them in different places.

Experiments:
[1] = Pharmacokinetics of eurycomanone in mice (intravenous and oral); format: in vivo, CD-1 mice; details: plasma; for AUC(0-t): read-out: AUC0–8
Description: (§1) The ethical approval for the animal experiments conducted in India was granted from the Animal Ethics Committee, Aurigene Discovery Technologies, Bangalore, India. Eight male Wistar rats (12 weeks old; weighing 250–350 g) and eight Caeserean Derived-1 (CD-1) mice (weighing 20–30 g) were obtained from the Animal House, Aurigene Discovery Technologies, Bangalore, India. They were supplied with standard rodent diets and drinking water ad libitum. Each rodent species (i.e., rats and mice) were divided into two groups. One group (n = 3 for each rodent species) was administered with eurycomanone via the intravenous route (IV) and another group (n = 3 for each rodent species) via the oral route (PO) using oral gavage intubation needle. Two animals of each of the species were used as a control and they received reverse osmosis water. All rats underwent jugular vein cannulation surgery 72 h prior to the administration of the eurycomanone.
(§2) Eurycomanone (rats: 1.5 mg/mL for IV route and 3.0 mg/mL for PO route; mice: 0.5 mg/mL for IV route and 1.0 mg/mL for PO route) samples were prepared fresh on the day of dosing. For the IV administration, eurycomanone was dissolved in 3% NMP and 97% of 10% HPCD in saline. For the oral administration, eurycomanone was dissolved in 3% NMP and 97% of 30% HPCD in saline. Both samples were sonicated before use. The SWE (5 mg/mL for IV route, 10 mg/mL for PO route) was prepared fresh on the day of dosing. For the IV administration, the SWE was dissolved in reverse osmosis water and filtered (0.2 µm pore size) before administration. The SWE for the PO administration was prepared using the same method, except without filtering. The animals were not fasted and doses given were based on the body weights prior to dosing.
(§3) Blood specimens (approximately 0.30–0.40 mL via the jugular vein cannula for rats and 0.10–0.20 mL via submanibular bleeding for mice) were collected at time points 0.083 (IV group only), 0.25, 0.5, 1, 2, 4, 6, and 8 h post-dosing with eurycomanone. At the experiment end point, the animals were euthanized by excess isoflurane inhalation followed by cervical dislocation. In the experiment using SWE, the rats were placed in metabolic cages (Techniplast, West Chester, PA, USA) and blood (approximately 0.30–0.40 mL collected via the jugular vein cannula), urine, and faeces specimens were collected at the same time points with the above plus one additional time point of 24 h. Kidney and liver specimens were collected at necropsy, where the rats were euthanized by CO2 inhalation followed by cervical dislocation. All blood specimens were centrifuged (10,000 rpm, 10 min) to obtain plasma and were stored at −80 °C until processed. Urine and faeces specimens were collected into plastic containers on wet ice while the organ specimens were snap-frozen in liquid nitrogen and maintained at −80 °C until processed.
(§4) Plasma specimens (100 µL), collected from the eurycomanone experiment were added with the internal standard solution (10 µL). Plasma proteins were precipitated with ACN (300 µL), vortex-mixed for 5 min, and centrifuged at 4000 rpm for 7 min. The supernatant was collected and evaporated using a nitrogen evaporator for 20 min at 50 °C. Thereafter, they were reconstituted with the mobile phase (500 µL) and transferred into LC-MS vials for analysis.
(§5) Eurycomanone detection in the pure eurycomanone experiments was done via the LC-MS/MS system consisting of an Agilent 1260 Infinity HPLC system and an AB SCIEX API 4000™ Triple-Quadrupole mass spectrometer equipped with TurboIonSpray® probe and atmospheric pressure chemical ionization (APCI) (AB Sciex LLC, Framingham, MA, USA). Electrospray ionization (ESI) was performed in positive ion mode. The analytical column was Agilent Zorbax Eclipse-C18 (4.6 mm I.D. × 150 mm, 3.5 µm). The mobile phase consisted of 0.1% formic acid (solvent A) and 90% ACN with 0.1% formic acid (solvent B). […]

[2] = Pharmacokinetics of eurycomanone (pure compound) in rats (intravenous and oral); format: in vivo; details: male, Wistar, rat, plasma; for AUC(0-t): read-out: AUC0–8
Description: as §1, §2, §3, §4, §5

Aqueous solubility = format: physicochemical; details: aqueous buffer, kinetic from dmso stock, room temperature, 2% DMSO
Protocol: The aqueous […] was estimated by adding 10 µL of eurycomanone stock solution (10 mM) to 490 µL of aqueous buffer at pH 5.4, pH 7.4 and DMSO in triplicates in deep-well plates. […] The plate was kept on a shaker (300 rpm) at room temperature for 16 h. The plate was then centrifuged at 25 °C, 4000 rpm for 25 min. The supernatant was transferred and analysed using LC-MS/MS.
Peak area 1 = peak area of the compound in 2% DMSO at the different pH levels.
Peak area 2 = peak area of the compound in 100% DMSO.

[3] = parameters: method as in PMID 27572280; details: cited from earlier work
[4] = Plasma protein binding (rapid equilibrium dialysis), human; format: in vitro ADME; details: pH 7.4; human plasma, 10 µM, 37 °C, 4 h; read-out: percentage bound to plasma protein (converted)
Protocol: (§6) The ability of eurycomanone to bind plasma protein was analysed in five types of plasma (mice, rat, dog, monkey, and human). Each type of plasma was spiked with eurycomanone (1 mM) to make the 10 µM test concentration of eurycomanone in the plasma. Equilibrium dialysis buffer (500 µL) at pH 7.4 was added to the right chamber in rapid equilibrium dialysis (RED), while the spiked plasma (300 µL) was added to the left chamber. The Teflon base plate was covered with aluminium foil and left on the shaking incubator at 37 °C for 4 h. The matrix was balanced by mixing 100 µL of the equilibrium buffer with the spiked plasma from the left chamber in RED before adding the stop solution (350 µL) to precipitate out the protein. The supernatant (10,000 rpm, 10 min, 4 °C) was collected and analysed using LC-MS/MS. The standards (propranolol, warfarin, and acebutalol) were analysed in duplicates.

plasma protein = experiment: as above; format: in vitro ADME; details: range over all species' plasma apart from dog (rat, monkey, mice, human)
Protocol: as §6

[5] = system: HepG2 cell-induced tumours; parameters: method as in earlier work; details: 17 mg/kg orally, nude mice with HepG2 cell-induced tumours; cited from earlier work

Compound: C=C1[C@@H](O)[C@]2(O)OC[C@]34[C@H]2[C@@]2(C)[C@H](O)C(=O)C=C(C)[C@@H]2C[C@H]3OC(=O)[C@H](O)[C@@]14O [Eurycomanone]
- Observed Cmax ([1]; 10 mg/kg oral, 10 mg/kg): 334.7 ng/mL
- AUC(0-t) ([1]; CD-1, mouse, 1 mg/kg intravenous): 221 ng·h/mL
- AUC(0-t) ([1]; CD-1, mouse, 10 mg/kg oral): 1210 ng·h/mL
- half-life ([1]; CD-1, mouse, 1 mg/kg intravenous, read-out: Half-life (t1/2) (converted)): 0.3 h
- clearance ([1]; CD-1, mouse, 1 mg/kg intravenous, read-out: Plasma Clearance (CL) (converted)): 64.2 mL/min/kg
- Vd ([1]; CD-1, mouse, 1 mg/kg intravenous, read-out: Volume of Distribution at Steady State (Vss)): 1.51 L/kg
- bioavailability ([1]; CD-1, mouse, 10 mg/kg oral vs 1 mg/kg intravenous, read-out: Bioavailability (F)): 54.9%
- Tmax ([1]; CD-1, mouse, 10 mg/kg oral, read-out: Observed Tmax): 2 h
- Cmax ([1]; CD-1, mouse, po, 10 mg/kg, 10 mg/kg oral, read-out: Observed Cmax): 335 ng/mL
- AUC(0-t) ([2]; 3 mg/kg intravenous): 970 ng·h/mL
- AUC(0-t) ([2]; 30 mg/kg oral): 1150 ng·h/mL
- Cmax ([2]; 30 mg/kg oral, read-out: Observed Cmax): 238 ng/mL
- half-life ([2]; 3 mg/kg intravenous, read-out: Half-life (t1/2) (converted)): 0.3 h
- clearance ([2]; 3 mg/kg intravenous, read-out: Plasma Clearance (CL) (converted)): 45.7 mL/min/kg
- Vd ([2]; 3 mg/kg intravenous, read-out: Volume of Distribution at Steady State (Vss)): 0.95 L/kg
- bioavailability ([2]; 30 mg/kg oral vs 3 mg/kg intravenous, read-out: Bioavailability (F)): 11.8%
- Tmax ([2]; 30 mg/kg oral, read-out: Observed Tmax): 2 h
- solubility at 16 h (Aqueous solubility; pH 5.4, 16 h): 206 µM (≈ 83.9 µg/mL)
- solubility at 16 h (Aqueous solubility; pH 7.4, 16 h): 205 µM (≈ 83.9 µg/mL)
- Cmax [3]: 40.43 ng/mL
- fraction unbound at 4 h, 10 µM [4]: 0.611
- fraction of unbound eurycomanone (plasma protein): 61.1–78.4%
- tumour suppression [5]: tumour suppression ability was demonstrated
